From ChEMBL document CHEMBL1909046, “DrugMatrix in vitro pharmacology data”

Experiments:
[1] = target: T1, Neuropeptide Y receptor type 1 (Homo sapiens, UniProt P25929); type: cell membranes, Membrane; conditions: sk-n-mc; note: in other assays of this panel Not Active means under 50% inhibition at 10 µM
T1 sequence (P25929 whole entry): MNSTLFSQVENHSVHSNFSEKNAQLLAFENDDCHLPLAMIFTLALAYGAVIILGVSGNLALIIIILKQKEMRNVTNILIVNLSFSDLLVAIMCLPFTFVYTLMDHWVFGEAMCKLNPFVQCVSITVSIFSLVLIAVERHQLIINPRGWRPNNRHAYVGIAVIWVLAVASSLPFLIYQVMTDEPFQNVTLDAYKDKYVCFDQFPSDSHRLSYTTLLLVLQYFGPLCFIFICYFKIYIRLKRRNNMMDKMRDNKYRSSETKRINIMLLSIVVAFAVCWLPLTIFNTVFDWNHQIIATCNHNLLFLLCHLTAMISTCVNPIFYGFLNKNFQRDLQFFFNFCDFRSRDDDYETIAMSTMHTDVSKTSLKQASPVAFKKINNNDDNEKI

[2] = DRUGMATRIX: Serotonin (5-Hydroxytryptamine) 5-HT3 radioligand binding (ligand: [3H] GR-65630); type: cell membranes, Membrane; conditions: hek293, Not Active = under 50% inhibition at 10 µM
[3] = DRUGMATRIX: Glutamate, NMDA, Agonism radioligand binding (ligand: [3H] CGP-39653); type: cell membranes, Rattus norvegicus, Wistar, Cerebral cortex, Membrane; conditions: Not Active = under 50% inhibition at 10 µM
Histamine H2 receptor = Histamine H2 receptor (Homo sapiens, UniProt P25021); type: cell membranes, CHO-K1, Membrane; conditions: cho-k1; note: in other assays of this panel Not Active means under 50% inhibition at 10 µM
[4] = target: T2, Muscarinic acetylcholine receptor M5 (Homo sapiens, UniProt P08912); type: cell membranes, CHO-K1, Membrane; note: in other assays of this panel Not Active means under 50% inhibition at 10 µM
T2 sequence (P08912 whole entry): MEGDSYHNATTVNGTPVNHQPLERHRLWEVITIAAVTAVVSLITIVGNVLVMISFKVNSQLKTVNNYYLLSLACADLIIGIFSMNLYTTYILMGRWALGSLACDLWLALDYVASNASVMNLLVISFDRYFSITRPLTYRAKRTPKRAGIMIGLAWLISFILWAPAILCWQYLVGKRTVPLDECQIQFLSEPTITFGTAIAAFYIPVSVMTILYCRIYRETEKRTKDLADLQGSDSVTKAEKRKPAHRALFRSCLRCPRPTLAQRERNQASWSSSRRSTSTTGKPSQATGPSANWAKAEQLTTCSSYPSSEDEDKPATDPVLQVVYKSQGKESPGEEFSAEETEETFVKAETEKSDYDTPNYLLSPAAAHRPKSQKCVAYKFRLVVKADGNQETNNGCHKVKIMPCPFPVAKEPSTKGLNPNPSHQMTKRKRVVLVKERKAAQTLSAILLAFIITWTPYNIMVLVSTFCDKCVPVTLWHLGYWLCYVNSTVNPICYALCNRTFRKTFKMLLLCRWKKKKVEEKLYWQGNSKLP

[5] = DRUGMATRIX: Phosphodiesterase PDE4 enzyme inhibition (substrate: [3H]cAMP + cAMP); conditions: u-937; Not Active = under 50% inhibition at 10 µM
Substance-K receptor = target: T3, Substance-K receptor (Homo sapiens, UniProt P21452); type: cell membranes, CHO, Membrane; conditions: cho; note: in other assays of this panel Not Active means under 50% inhibition at 10 µM
T3 sequence (P21452 whole entry): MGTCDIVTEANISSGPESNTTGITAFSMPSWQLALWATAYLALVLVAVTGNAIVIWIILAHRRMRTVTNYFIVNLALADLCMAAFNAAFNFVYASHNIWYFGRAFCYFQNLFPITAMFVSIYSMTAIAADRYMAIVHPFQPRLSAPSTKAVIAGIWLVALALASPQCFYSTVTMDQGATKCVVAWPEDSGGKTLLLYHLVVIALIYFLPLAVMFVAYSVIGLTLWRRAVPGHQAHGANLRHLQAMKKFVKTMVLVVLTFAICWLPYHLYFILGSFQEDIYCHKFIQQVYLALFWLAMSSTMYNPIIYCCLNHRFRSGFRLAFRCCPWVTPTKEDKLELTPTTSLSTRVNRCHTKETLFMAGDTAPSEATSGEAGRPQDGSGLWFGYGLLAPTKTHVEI

Mu-type opioid receptor = Mu-type opioid receptor (Homo sapiens, UniProt P35372); assay: DRUGMATRIX: Opiate mu (OP3, MOP) radioligand binding (ligand: [3H] Diprenorphine); type: cell membranes, CHO-K1, Membrane; conditions: cho-k1; Not Active = under 50% inhibition at 10 µM
[6] = target: Tyrosine-protein kinase Fyn (Homo sapiens, UniProt P06241); assay: biochemical; type: cell-based, Insect cells; conditions: insect cells
[7] = target: T4, Muscarinic acetylcholine receptor M4 (Homo sapiens, UniProt P08173); type: cell membranes, CHO-K1, Membrane; conditions: cho-k1; note: in other assays of this panel Not Active means under 50% inhibition at 10 µM
T4 sequence (P08173 whole entry): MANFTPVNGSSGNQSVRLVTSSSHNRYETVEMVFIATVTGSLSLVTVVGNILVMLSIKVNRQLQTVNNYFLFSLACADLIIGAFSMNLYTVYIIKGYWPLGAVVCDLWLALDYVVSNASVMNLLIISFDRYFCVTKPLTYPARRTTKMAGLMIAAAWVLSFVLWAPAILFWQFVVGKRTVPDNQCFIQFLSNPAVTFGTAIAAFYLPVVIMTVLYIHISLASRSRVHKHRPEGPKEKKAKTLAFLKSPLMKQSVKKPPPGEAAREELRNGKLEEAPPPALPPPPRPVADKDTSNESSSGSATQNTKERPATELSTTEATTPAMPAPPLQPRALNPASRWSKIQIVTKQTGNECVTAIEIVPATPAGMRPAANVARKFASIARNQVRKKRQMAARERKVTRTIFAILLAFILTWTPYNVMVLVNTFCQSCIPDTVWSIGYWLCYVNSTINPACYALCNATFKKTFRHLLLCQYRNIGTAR

Carbonic anhydrase 2 = Carbonic anhydrase 2 (Homo sapiens, UniProt P00918); assay: DRUGMATRIX: Carbonic Anhydrase II enzyme inhibition (substrate: 4-Nitrophenyl acetate (4-NPA)); type: tissue-based, Erythrocyte; conditions: erythrocyte; Not Active = under 50% inhibition at 10 µM
[8] = DRUGMATRIX: Nicotinic Acetylcholine radioligand binding (ligand: [125I] Epibatidine); type: cell membranes, Membrane; conditions: imr-32; Not Active = under 50% inhibition at 10 µM
[9] = target: Sodium-dependent dopamine transporter (Homo sapiens, UniProt Q01959); assay: DRUGMATRIX: Dopamine Transporter radioligand binding (ligand: [125I] RTI-55); type: cell membranes, CHO-K1, Membrane; conditions: cho-k1; Not Active = under 50% inhibition at 10 µM
Sodium-dependent dopamine transporter, sequence (Q01959 whole entry): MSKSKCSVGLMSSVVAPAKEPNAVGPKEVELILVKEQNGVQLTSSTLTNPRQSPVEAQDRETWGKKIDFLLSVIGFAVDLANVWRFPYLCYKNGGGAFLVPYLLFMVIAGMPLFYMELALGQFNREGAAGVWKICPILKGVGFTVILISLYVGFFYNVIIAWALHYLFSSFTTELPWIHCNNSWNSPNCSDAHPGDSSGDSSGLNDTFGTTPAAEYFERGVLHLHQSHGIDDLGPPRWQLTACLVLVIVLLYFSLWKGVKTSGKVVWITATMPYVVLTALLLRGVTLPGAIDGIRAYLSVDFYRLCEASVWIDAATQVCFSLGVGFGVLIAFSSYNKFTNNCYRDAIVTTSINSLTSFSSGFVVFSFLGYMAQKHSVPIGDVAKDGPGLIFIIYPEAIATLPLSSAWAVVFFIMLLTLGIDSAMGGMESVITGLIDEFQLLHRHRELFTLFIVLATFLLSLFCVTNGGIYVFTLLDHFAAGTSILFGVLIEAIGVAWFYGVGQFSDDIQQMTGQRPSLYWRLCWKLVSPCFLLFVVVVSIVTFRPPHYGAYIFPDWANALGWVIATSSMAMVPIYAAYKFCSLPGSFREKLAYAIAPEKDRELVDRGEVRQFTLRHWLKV

Tyrosine-protein kinase Fyn, sequence (P06241 whole entry): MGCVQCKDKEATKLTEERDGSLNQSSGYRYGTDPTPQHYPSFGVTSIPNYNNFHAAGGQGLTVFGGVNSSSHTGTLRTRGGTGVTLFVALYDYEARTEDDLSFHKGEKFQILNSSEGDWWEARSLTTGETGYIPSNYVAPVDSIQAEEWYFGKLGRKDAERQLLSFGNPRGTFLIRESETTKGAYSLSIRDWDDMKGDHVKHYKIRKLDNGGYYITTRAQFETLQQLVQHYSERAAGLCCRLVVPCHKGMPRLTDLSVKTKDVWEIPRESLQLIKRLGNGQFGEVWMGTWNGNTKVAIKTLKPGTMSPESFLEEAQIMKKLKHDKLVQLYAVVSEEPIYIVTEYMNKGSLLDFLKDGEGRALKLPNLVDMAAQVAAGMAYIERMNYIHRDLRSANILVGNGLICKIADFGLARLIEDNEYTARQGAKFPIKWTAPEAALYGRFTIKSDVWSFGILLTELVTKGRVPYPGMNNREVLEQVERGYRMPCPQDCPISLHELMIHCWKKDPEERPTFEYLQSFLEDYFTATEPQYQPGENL
Mu-type opioid receptor, sequence (P35372 whole entry): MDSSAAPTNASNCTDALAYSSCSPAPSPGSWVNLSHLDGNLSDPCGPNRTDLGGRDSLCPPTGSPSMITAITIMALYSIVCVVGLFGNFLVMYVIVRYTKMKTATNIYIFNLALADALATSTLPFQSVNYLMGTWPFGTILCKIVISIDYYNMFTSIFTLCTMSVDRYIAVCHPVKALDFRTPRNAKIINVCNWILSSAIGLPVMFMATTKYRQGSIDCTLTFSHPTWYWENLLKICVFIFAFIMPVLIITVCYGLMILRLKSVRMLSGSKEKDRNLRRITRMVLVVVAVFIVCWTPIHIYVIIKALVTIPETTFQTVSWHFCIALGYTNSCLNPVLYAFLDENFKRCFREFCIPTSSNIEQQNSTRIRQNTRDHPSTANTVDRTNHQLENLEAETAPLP
Histamine H2 receptor, sequence (P25021 whole entry): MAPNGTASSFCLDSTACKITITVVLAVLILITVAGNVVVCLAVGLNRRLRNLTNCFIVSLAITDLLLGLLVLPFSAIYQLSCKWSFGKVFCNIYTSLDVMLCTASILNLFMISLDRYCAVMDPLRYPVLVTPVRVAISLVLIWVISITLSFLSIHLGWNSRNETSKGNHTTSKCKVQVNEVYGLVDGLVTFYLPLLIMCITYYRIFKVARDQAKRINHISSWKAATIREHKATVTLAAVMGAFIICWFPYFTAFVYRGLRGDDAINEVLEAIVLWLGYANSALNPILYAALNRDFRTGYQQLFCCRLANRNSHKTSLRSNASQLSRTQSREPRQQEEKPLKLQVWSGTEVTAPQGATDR

SMILES | IC50 [1] | IC50 [2] | Ki [2] | IC50 [3] | Ki [3] | IC50 (Histamine H2 receptor) | IC50 ([4]; cho-k1) | IC50 [5] | Ki [5] | IC50 (Substance-K receptor) | IC50 (Mu-type opioid receptor) | IC50 [6] | IC50 [7] | IC50 (Carbonic anhydrase 2) | IC50 [8] | Ki [8] | IC50 [9] | also measured
Cc1ccc(C(=O)C(C)CN2CCCCC2)cc1 (stereo not given) [TOLPERISONE] | Not Active | Not Active | Not Active | Not Active | Not Active | Not Active | Not Active | Not Active | Not Active | Not Active | Not Active | Not Active | Not Active | Not Active | Not Active | Not Active | Not Active | –
NC(CO)(CO)CO [TROMETHAMINE] | Not Active | Not Active | Not Active | Not Active | Not Active | Not Active | Not Active | Not Active | Not Active | Not Active | Not Active | Not Active | Not Active | Not Active | Not Active | Not Active | Not Active | –
CN1[C@@H]2CC[C@H]1C[C@@H](OC(=O)c1c[nH]c3ccccc13)C2 [TROPISETRON] | Not Active | – | – | Not Active | Not Active | Not Active | – | Not Active | Not Active | Not Active | Not Active | Not Active | Not Active | Not Active | Not Active | Not Active | Not Active | IC50 ([2]; read-out: IC50): 0.00676 µM; Ki ([2]; read-out: Ki): 0.00152 µM; IC50 ([4]; read-out: IC50): 3.45 µM; Ki ([4]; read-out: Ki): 2.48 µM
COc1cc(C(=O)NC2CCCNC2)cc(OC)c1OC (stereo not given) [TROXIPIDE] | Not Active | Not Active | Not Active | Not Active | Not Active | Not Active | Not Active | Not Active | Not Active | Not Active | Not Active | Not Active | Not Active | Not Active | Not Active | Not Active | Not Active | –
CC(C)[C@H](N)C(=O)OCCOCn1cnc2c(=O)nc(N)[nH]c21 [VALACYCLOVIR] | Not Active | Not Active | Not Active | Not Active | Not Active | Not Active | Not Active | Not Active | Not Active | Not Active | Not Active | Not Active | Not Active | Not Active | Not Active | Not Active | Not Active | –
CN[C@H](CC(C)C)C(=O)N[C@H]1C(=O)N[C@@H](CC(N)=O)C(=O)N[C@H]2C(=O)N[C@H]3C(=O)N[C@H](C(=O)N[C@H](C(=O)O)c4cc(O)cc(O)c4-c4cc3ccc4O)[C@H](O)c3ccc(c(Cl)c3)Oc3cc2cc(c3O[C@@H]2O[C@H](CO)[C@@H](O)[C@H](O)[C@H]2O[C@H]2C[C@](C)(N)[C@H](O)[C@H](C)O2)Oc2ccc(cc2Cl)[C@H]1O [VANCOMYCIN] | Not Active | Not Active | Not Active | Not Active | Not Active | Not Active | Not Active | Not Active | Not Active | Not Active | Not Active | Not Active | Not Active | Not Active | Not Active | Not Active | Not Active | –
COC(=O)[C@@H]1[C@H]2C[C@H]3c4[nH]c5ccccc5c4CCN3C[C@@H]2CC[C@@H]1O [YOHIMBINE] | Not Active | Not Active | Not Active | Not Active | Not Active | Not Active | Not Active | Not Active | Not Active | Not Active | Not Active | Not Active | Not Active | Not Active | Not Active | Not Active | Not Active | –
